Patent publication US11806323B2, “Topical anesthetics” (PTC Innovations, LLC, priority 2022, dated 2023)
Like-named read-outs stand apart in the source and are kept apart here.

Key:
Nav1.7 = target: T1, Nav1.7 (Homo sapiens, UniProt Q15858); assay: Patch clamp testing, Nav1.7 ion channel inhibition (SyncroPatch 384PE); type: cell-based
T1 construct: ChanTest Corp; host or cells: CHO cells (Chinese hamster)
Method: An examination of the in vitro effects of the compounds consistent with the present disclosure on ion channels Nav1.5 (a sodium voltage-gated channel alpha subunit found predominantly in cardiac muscle cells) and Nav1.7 (a sodium voltage-gated channel alpha subunit normally expressed in high levels in nociceptive pain neurons at dorsal root ganglion (DRG) and trigeminal ganglion and in sympathetic ganglion neurons) was performed using adult epithelial (ovarian) tissue CHO cells of Chinese hamsters (C. griseus) […] transfected with human ion channel cDNAs (ATCC, Manassas, VA; ChanTest Corp., Cleveland, OH). Cells were cultured in Ham's F-12 medium supplemented with 10% fetal bovine serum, 100 U/mL penicillin G sodium, 100 μg/mL streptomycin sulfate, and 500 μg/mL G418 aminoglycoside antibiotic.
(§1) Each compound was analyzed at concentrations of 1000 μM, 300 μM, 100 μM, 30 μM, 10 μM, 3 μM, 1 μM, and 0.3 μM. […] All tested compound formulations contained 0.3% DMSO. Each concentration of each compound was loaded into a well of a 384-well polypropylene compound plate using an automated liquid handling system (Integra Assist Plus, Integra) and then placed in the plate well of SyncroPatch 384PE (SP384PE; Nanion Technologies, Livingston, NJ) immediately before application of the cells.
Observed IC50 values of the channel current inhibition for each test article are provided in Table 8 (Nav1.5 ion channel inhibition) and Table 9 (Nav1.7 ion channel inhibition).

Nav1.5 = target: T2, Nav1.5 (Homo sapiens, UniProt Q14524); assay: Patch clamp testing, Nav1.5 ion channel inhibition (SyncroPatch 384PE); type: cell-based
T2 construct: ChanTest Corp; host or cells: CHO cells (Chinese hamster)
Method: Cells were cultured in Ham's F-12 medium supplemented with 10% fetal bovine serum, 100 U/mL penicillin G sodium, 100 μg/mL streptomycin sulfate, and 500 μg/mL G418 aminoglycoside antibiotic.
as §1

[1] = TP1A = Tonic Block, CHO cells transfected with human ion channel cDNA, 0.3% DMSO, read-out: Inhibition of Nav1.7 Ion Channel IC50, TP1A
[2] = TP2A = Inactivated State-Dependent Block, CHO cells transfected with human ion channel cDNA, 0.3% DMSO, read-out: Inhibition of Nav1.7 Ion Channel IC50, TP2A
[3] = TP25B = Use-Dependent Block, CHO cells transfected with human ion channel cDNA, 0.3% DMSO, read-out: Inhibition of Nav1.7 Ion Channel IC50, TP25B
[4] = Inhibition of Nav1.5 Ion Channel IC50, TP1A, TP1A = Tonic Block, CHO cells transfected with human ion channel cDNA, 0.3% DMSO
[5] = Inhibition of Nav1.5 Ion Channel IC50, TP2A, TP2A = Inactivated State-Dependent Block, CHO cells transfected with human ion channel cDNA, 0.3% DMSO
[6] = Inhibition of Nav1.5 Ion Channel IC50, TP25B, TP25B = Use-Dependent Block, CHO cells transfected with human ion channel cDNA, 0.3% DMSO
[7] = read-out: Inhibition of Nav1.7 Ion Channel IC50, TP25B, TP25B = Use-Dependent Block, CHO cells transfected with human ion channel cDNA, 0.3% DMSO

T1 sequence (Q15858 whole entry): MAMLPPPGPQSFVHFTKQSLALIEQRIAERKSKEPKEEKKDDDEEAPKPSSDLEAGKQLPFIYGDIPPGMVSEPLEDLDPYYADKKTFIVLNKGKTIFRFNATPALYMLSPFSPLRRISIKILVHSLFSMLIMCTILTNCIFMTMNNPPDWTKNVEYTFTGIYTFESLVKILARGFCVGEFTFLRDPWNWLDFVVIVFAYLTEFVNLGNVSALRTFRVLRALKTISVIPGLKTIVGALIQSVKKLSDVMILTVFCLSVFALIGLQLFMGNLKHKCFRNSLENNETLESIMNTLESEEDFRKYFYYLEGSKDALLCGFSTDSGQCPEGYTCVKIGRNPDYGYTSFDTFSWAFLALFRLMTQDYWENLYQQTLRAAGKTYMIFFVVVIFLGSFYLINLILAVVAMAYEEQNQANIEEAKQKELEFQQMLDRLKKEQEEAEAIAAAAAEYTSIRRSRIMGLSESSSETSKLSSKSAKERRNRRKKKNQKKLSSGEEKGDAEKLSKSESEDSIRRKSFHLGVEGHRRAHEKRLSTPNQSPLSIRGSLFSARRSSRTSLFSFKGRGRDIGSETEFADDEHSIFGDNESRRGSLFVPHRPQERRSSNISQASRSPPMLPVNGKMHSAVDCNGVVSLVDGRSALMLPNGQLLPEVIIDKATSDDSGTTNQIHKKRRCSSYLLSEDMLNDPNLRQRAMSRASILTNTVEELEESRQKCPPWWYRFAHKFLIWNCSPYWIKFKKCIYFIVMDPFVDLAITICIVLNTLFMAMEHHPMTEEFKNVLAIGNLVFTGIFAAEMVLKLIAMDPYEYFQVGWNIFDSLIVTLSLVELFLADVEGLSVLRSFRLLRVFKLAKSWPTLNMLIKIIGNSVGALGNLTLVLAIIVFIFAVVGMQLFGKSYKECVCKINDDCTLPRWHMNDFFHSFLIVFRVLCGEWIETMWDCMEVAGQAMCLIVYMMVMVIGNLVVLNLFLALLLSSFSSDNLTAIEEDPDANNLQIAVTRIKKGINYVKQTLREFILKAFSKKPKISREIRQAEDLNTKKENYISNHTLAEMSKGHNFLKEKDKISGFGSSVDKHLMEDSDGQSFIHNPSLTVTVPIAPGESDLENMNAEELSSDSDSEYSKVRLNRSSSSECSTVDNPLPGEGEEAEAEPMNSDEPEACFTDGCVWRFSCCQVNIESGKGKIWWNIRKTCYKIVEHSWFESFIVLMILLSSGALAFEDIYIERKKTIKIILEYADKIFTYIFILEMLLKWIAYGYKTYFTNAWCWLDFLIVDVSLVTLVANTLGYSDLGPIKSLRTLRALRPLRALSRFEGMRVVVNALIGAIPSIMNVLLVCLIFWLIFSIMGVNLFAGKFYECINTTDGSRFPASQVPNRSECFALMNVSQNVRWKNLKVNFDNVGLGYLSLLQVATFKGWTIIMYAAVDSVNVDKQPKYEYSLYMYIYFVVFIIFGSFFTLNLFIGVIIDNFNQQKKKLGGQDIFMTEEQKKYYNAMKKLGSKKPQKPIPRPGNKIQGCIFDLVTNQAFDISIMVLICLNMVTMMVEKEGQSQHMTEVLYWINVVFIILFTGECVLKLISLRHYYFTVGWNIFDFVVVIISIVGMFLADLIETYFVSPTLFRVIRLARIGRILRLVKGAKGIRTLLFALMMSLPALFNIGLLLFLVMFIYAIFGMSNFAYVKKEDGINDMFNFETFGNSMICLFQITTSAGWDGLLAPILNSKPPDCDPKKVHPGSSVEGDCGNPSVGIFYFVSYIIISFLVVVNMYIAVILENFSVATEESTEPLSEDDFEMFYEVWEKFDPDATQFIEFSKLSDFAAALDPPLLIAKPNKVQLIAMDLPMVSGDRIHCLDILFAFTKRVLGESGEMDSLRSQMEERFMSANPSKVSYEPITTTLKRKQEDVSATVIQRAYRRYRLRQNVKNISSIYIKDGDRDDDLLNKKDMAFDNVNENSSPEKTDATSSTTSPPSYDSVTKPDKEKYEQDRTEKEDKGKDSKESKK
T2 sequence (Q14524 whole entry): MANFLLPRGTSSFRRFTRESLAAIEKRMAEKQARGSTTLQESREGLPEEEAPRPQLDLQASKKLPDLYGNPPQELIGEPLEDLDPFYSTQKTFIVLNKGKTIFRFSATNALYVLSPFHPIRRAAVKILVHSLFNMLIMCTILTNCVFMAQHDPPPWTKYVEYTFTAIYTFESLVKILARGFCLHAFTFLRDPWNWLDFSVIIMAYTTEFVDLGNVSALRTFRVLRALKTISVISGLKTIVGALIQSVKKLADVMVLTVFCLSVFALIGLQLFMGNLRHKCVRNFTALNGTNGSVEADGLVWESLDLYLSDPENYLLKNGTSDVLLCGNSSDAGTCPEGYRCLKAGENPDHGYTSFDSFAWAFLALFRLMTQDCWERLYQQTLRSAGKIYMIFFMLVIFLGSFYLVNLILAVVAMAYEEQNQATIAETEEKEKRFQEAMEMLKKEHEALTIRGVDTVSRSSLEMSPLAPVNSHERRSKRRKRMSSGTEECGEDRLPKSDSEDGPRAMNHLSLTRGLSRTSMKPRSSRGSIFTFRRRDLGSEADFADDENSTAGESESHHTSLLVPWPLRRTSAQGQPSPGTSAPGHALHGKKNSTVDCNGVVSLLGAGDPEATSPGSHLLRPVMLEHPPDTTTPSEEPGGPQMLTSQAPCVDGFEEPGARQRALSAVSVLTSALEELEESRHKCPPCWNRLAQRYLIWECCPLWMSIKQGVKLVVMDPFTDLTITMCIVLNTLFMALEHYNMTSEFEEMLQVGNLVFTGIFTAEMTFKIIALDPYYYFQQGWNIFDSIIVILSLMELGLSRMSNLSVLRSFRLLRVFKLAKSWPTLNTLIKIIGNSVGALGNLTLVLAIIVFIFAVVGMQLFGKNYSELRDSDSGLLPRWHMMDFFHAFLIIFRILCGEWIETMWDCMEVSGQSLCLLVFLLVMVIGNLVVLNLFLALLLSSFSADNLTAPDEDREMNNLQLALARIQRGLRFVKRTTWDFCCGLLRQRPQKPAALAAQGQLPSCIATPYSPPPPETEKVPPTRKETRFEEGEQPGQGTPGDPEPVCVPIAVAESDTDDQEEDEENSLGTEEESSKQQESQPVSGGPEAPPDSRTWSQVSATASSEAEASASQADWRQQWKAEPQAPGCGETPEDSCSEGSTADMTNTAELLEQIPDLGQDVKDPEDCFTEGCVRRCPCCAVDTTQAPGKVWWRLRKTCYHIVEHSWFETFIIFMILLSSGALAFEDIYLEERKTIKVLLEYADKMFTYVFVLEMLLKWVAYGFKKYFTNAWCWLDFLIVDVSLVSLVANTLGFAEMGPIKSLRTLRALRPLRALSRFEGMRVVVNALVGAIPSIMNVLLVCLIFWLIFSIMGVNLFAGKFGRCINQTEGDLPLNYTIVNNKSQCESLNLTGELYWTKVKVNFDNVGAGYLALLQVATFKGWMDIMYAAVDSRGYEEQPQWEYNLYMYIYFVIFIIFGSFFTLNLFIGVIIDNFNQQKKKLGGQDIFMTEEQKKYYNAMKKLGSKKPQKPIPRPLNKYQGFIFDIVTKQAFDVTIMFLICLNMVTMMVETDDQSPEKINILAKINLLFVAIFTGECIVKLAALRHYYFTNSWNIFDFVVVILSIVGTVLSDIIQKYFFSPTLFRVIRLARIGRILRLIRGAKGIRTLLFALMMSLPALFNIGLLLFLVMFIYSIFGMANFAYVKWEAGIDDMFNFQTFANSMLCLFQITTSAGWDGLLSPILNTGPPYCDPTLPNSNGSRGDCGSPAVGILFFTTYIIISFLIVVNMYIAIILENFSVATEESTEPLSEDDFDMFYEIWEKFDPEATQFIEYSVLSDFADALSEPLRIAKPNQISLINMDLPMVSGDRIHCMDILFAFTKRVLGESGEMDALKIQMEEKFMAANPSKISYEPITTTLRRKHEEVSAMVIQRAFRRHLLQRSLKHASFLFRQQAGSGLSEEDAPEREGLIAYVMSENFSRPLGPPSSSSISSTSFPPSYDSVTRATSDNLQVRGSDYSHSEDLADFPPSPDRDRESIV

IC50 (Nav1.7; [1]) [µM]	IC50 (Nav1.7; [2]) [µM]	IC50 (Nav1.7; [3]) [µM]	SMILES	IC50 (Nav1.5; [4]) [µM]	IC50 (Nav1.5; [5]) [µM]	IC50 (Nav1.5; [6]) [µM]	IC50 (Nav1.7) [µM]	IC50 (Nav1.7; [7]) [µM]	IC50 (Nav1.5) [µM]
> 1000	> 1000	> 1000	COc1ccc(N(C)C(=O)CN(CCN(C)C)c2ccccc2)cc1 [Compound 2290]	> 1000	> 1000	> 1000	–	–	–
561	463	490	COc1ccc(N(C)C(=O)CN(CCN(C)C)c2cccc(Cl)c2)cc1 [Compound 2291]	808	740	693	–	–	–
165	162	167	COc1ccc(N(C)C(=O)CN(CCN(C)C)c2ccc(Cl)c(Cl)c2)cc1 [Compound 2292]	208	216	193	–	–	–
> 1000	> 1000	> 1000	COc1ccc(N(CCN(C)C)CC(=O)N(C)c2ccc(OC)cc2)cc1 [Compound 2294]	> 1000	> 1000	> 1000	–	–	–
265	231	210	COc1ccc(N(C)C(=O)CN(CCN(C)C)c2cccc(OC(F)(F)F)c2)cc1 [Compound 2296]	254	236	222	–	–	–
74.7	66.2	54.4	COc1ccc(N(C)C(=O)CN(CCN(C)C)c2ccc(Cl)c(C(F)(F)F)c2)cc1 [Compound 2297]	95.1	91.2	72.7	–	–	–
273	229	220	COc1ccc(N(C)C(=O)CN(CCN(C)C)c2cc(Cl)ccc2Cl)cc1 [Compound 2298]	249	240	204	–	–	–
393	315	334	COc1ccc(N(C)C(=O)CN(CCN(C)C)c2ccc(F)c(Cl)c2)cc1 [Compound 2299]	515	449	505	–	–	–
546	673	626	COc1ccc(N(C)C(=O)CN(CCN(C)C)c2cccc(Cl)c2F)cc1 [Compound 2300]	327	307	259	–	–	–
312	275	235	COc1ccc(N(C)C(=O)CN(CCN(C)C)c2ccccc2C(F)(F)F)cc1 [Compound 2301]	265	243	154	–	–	–
70.2	77.9	55.4	COc1ccc(N(C)C(=O)CN(CCN)c2ccccc2)cc1 [Compound 2302]	124	96.8	75.9	–	–	–
15	14.5	13.1	COc1ccc(N(C)C(=O)CN(CCN2CCCCC2)c2ccccc2)cc1 [Compound 2303]	16.6	13.5	9.5	–	–	–
> 1000	> 1000	> 1000	COc1ccc(N(C)C(=O)CN(CCN2CCN(C)CC2)c2ccccc2)cc1 [Compound 2304]	> 1000	880	670	–	–	–

SMILES	IC50 (Nav1.7; [1]) [µM]	IC50 (Nav1.7; [2]) [µM]	IC50 (Nav1.7; [3]) [µM]	IC50 (Nav1.5; [4]) [µM]	IC50 (Nav1.5; [5]) [µM]	IC50 (Nav1.5; [6]) [µM]	IC50 (Nav1.7) [µM]	IC50 (Nav1.7; [7]) [µM]	IC50 (Nav1.5) [µM]
COc1ccc(N(C)C(=O)CN(CCN(C)C)c2ccccc2OC)cc1 [Compound 2293]	> 1000	–	–	–	> 1000	> 1000	> 1000	> 1000	> 1000
COc1ccc(N(C)C(=O)CN(CCN(C)C)c2ccccc2C)cc1 [Compound 2295]	> 1000	–	–	–	> 1000	> 1000	> 1000	> 1000	> 1000
CCN(CC)CC(=O)Nc1c(C)cccc1C [Lidocaine, reference compound]	408	23.7	113	–	–	–	–	–	–
